Laboratory results taken from patent publication US7419972B2, “2-substituted estra-1,3,5(10)-trien-17-ones as inhibitors of 17β-hydroxy steroid dehydrogenase type 1” (Schering AG, priority 2004, dated 2008).

biological target: T1, human 17β-hydroxy steroid dehydrogenase type 1 (Homo sapiens, UniProt P14061); experiment: Inhibition of the activity of human 17β-hydroxy steroid dehydrogenase type 1 (3H-labeled substrate conversion, HPLC); assay type: biochemical; conditions: not given
T1 construct: made in house; host or cells: E. coli (suspension of bacterial pellets, enzyme not purified)
T1 sequence (P14061 1-328): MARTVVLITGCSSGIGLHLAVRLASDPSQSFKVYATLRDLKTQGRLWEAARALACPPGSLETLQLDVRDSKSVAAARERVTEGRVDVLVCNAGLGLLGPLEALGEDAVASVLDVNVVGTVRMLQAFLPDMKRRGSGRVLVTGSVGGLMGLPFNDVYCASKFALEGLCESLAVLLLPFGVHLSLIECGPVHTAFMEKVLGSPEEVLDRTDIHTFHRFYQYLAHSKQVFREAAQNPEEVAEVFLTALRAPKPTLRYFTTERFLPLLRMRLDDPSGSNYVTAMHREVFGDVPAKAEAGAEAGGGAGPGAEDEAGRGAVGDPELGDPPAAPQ
Text: The test method is well described in the literature [Adamski, J., Sierralta, W. D., Jungblut, P. W., Acta Endocrinol (Copenh.) 121(2) (1989), 161-7] and is depicted below.
Human 17β-hydroxy steroid dehydrogenases (17β-HSDs) are over-expressed in E. coli bacteria as His-Tag proteins or as GST-fusion proteins. The suspensions of the bacterial pellets in isotonic common salt solution are used for the determination of enzyme activities of the 17β-HSDs or for the study of their influence by potential inhibitors (estrogen derivatives).
The measurements are made in double determination and, if necessary, at various concentrations of potential inhibitors (e.g., in determining the IC50 values). In addition to the target enzyme 17β-HSD1, other steroid-metabolizing enzymes are included in the test to study cross reactivities of estrogen derivatives.
The incubation of the samples is carried out at 37° C. in a water bath while being shaken, such that in the control (without substances to be tested), a conversion of about 30% is achieved.
The separation of radiolabeled substrate and product is then carried out, after extraction with 1 ml of reversed phase-(RP-18)-cartridges, by means of HPLC on an RP18 column with acetonitrile:water 1:1 (v/v) as a mobile phase. The radioactivity is detected with the aid of a flow-scintillation counter.
The evaluation of the substrate conversion with and without substances to be tested is performed by the integration of the substrate and product peaks. The conversion of the control normalized to 100% conversion.

Row | SMILES | IC50 [nM]
1 | C[C@]12CC[C@@H]3c4cc(Cl)c(O)cc4CC[C@H]3[C@@H]1C[C@@H](F)C2=O [Compound 3, 2-Chloro-16α-fluoro-3-hydroxy-estra-1,3,5(10)-trien-17-one] | 101
2 | C[C@]12CC[C@@H]3c4cc(Cl)c(O)cc4CC[C@H]3[C@@H]1C[C@H](F)C2=O [Compound 4, 2-Chloro-16β-fluoro-3-hydroxy-estra-1,3,5(10)-trien-17-one] | 35
3 | C[C@]12CC[C@@H]3c4cc(CCc5ccccc5)c(O)cc4CC[C@H]3[C@@H]1CCC2=O [Compound 21, 3-Hydroxy-2-(2′-phenyl-ethyl)estra-1,3,5(10)-trien-17-one] | 47

same assay, conditions: enzyme over-expressed in E. coli, bacterial suspension, 37° C.; read-out: 17βHSD1 IC50

Row | SMILES | IC50 [nM]
4 | CCc1cc2c(cc1O)CC[C@@H]1[C@@H]2CC[C@]2(C)C(=O)CC[C@@H]12 [Compound 23, 2-Ethyl-3-hydroxy-estra-1,3,5(10)-trien-17-one] | 89
5 | CC[C@]12CC[C@@H]3c4cc(Cl)c(O)cc4CC[C@H]3[C@@H]1CCC2=O [Compound 1, 2-Chloro-3-hydroxy-18a-homoestra-1,3,5(10)-trien-17-one] | 121
6 | C[C@]12CC[C@@H]3c4cc(C#N)c(O)cc4CC[C@H]3[C@@H]1CCC2=O [Compound 12, 2-Cyano-3-hydroxy-estra-1,3,5(10)-trien-17-one] | 148
7 | C[C@]12CC[C@@H]3c4cc(C#Cc5ccccc5)c(O)cc4CC[C@H]3[C@@H]1CCC2=O [Compound 19, 3-Hydroxy-2-phenylethinyl-estra-1,3,5(10)-trien-17-one] | 56
8 | C[C@]12CC[C@@H]3c4cc(Cl)c(O)cc4CC[C@H]3[C@@H]1CCC2=O [Compound 11, 2-Chloro-3-hydroxy-estra-1,3,5(10)-trien-17-one] | 140
